Measured values reported in the NIST ThermoML archive (doi:10.1016/j.jct.2017.03.004).
± gives the expanded uncertainty stated by the source.

Experiments:
[1] = for viscosity / mass density: 101 kPa, Liquid; for viscosity: Falling or rolling sphere viscometry; for mass density: Vibrating tube method
[2] = activity coefficient (dimensionless); of the first substance listed, at infinite dilution; xn = mol fraction of the nth substance listed; conditions: 101.33 kPa, Liquid, Chromatography, x1 = 0

N#C[N-]C#N.OCCC[n+]1ccccc1 [N-(3-hydroxypropyl)pyridinium dicyanamide]
viscosity ([1]; 298.15 K): 115 ± 4 mPa·s | mass density ([1]; 298.15 K): 1171.01 ± 2.9 kg/m3 | mass density ([1]; 303.15 K): 1167.78 ± 2.9 kg/m3 | viscosity ([1]; 308.15 K): 70.8 ± 1.8 mPa·s | mass density ([1]; 308.15 K): 1164.58 ± 2.9 kg/m3 | mass density ([1]; 313.15 K): 1161.4 ± 2.9 kg/m3 | viscosity ([1]; 318.15 K): 47.1 ± 1.1 mPa·s | mass density ([1]; 318.15 K): 1158.23 ± 2.9 kg/m3 | mass density ([1]; 323.15 K): 1155.09 ± 2.9 kg/m3 | viscosity ([1]; 328.15 K): 32.9 ± 0.8 mPa·s | mass density ([1]; 328.15 K): 1151.97 ± 2.9 kg/m3 | mass density ([1]; 333.15 K): 1148.86 ± 2.9 kg/m3 | viscosity ([1]; 338.15 K): 23.4 ± 0.6 mPa·s | mass density ([1]; 338.15 K): 1145.77 ± 2.9 kg/m3 | mass density ([1]; 343.15 K): 1142.69 ± 2.9 kg/m3 | viscosity ([1]; 348.15 K): 17.8 ± 0.4 mPa·s | mass density ([1]; 348.15 K): 1139.63 ± 2.9 kg/m3 | mass density ([1]; 353.15 K): 1136.59 ± 2.9 kg/m3 | viscosity ([1]; 358.15 K): 14 ± 0.3 mPa·s | mass density ([1]; 358.15 K): 1133.57 ± 2.9 kg/m3 | mass density ([1]; 363.15 K): 1130.58 ± 2.9 kg/m3 | mass density ([1]; 368.15 K): 1127.62 ± 2.9 kg/m3 | Glass transition temperature ([1]; Glass, DSC): -81 ± 0.8 °C

C1CCOC1 [tetrahydrofuran] + N#C[N-]C#N.OCCC[n+]1ccccc1
activity coefficient ([2]; 318.15 K): 3.1 ± 0.21 | activity coefficient ([2]; 328.15 K): 3.25 ± 0.22 | activity coefficient ([2]; 338.15 K): 3.38 ± 0.23 | activity coefficient ([2]; 348.15 K): 3.53 ± 0.24 | activity coefficient ([2]; 358.15 K): 3.66 ± 0.25 | activity coefficient ([2]; 368.15 K): 3.79 ± 0.26

c1ccsc1 [thiophene] + N#C[N-]C#N.OCCC[n+]1ccccc1
activity coefficient ([2]; 318.15 K): 2.6 ± 0.18 | activity coefficient ([2]; 328.15 K): 2.71 ± 0.18 | activity coefficient ([2]; 338.15 K): 2.81 ± 0.19 | activity coefficient ([2]; 348.15 K): 2.93 ± 0.2 | activity coefficient ([2]; 358.15 K): 3.03 ± 0.21 | activity coefficient ([2]; 368.15 K): 3.14 ± 0.21

Cc1ccccc1 [toluene] + N#C[N-]C#N.OCCC[n+]1ccccc1
activity coefficient ([2]; 318.15 K): 8.44 ± 0.58 | activity coefficient ([2]; 328.15 K): 8.72 ± 0.59 | activity coefficient ([2]; 338.15 K): 9.03 ± 0.62 | activity coefficient ([2]; 348.15 K): 9.31 ± 0.64 | activity coefficient ([2]; 358.15 K): 9.58 ± 0.65 | activity coefficient ([2]; 368.15 K): 9.85 ± 0.67

O [water] + N#C[N-]C#N.OCCC[n+]1ccccc1
activity coefficient ([2]; 328.15 K): 0.399 ± 0.034 | activity coefficient ([2]; 338.15 K): 0.411 ± 0.034 | activity coefficient ([2]; 348.15 K): 0.421 ± 0.035 | activity coefficient ([2]; 358.15 K): 0.432 ± 0.035
